Results published in paper PMC6054081, “De novo design of isopeptide bond-tethered triple-stranded coiled coils with exceptional resistance to unfolding and proteolysis: implication for developing antiviral therapeutics” (Chemical Science, 2015).
Bridge positions count the residues as written; N and C are the ends. Peptide text beside a SMILES is read from it. I, II: the chains in the order shown.

Legend:
HIV-1IIIB = HIV-1IIIB infection assay (MT-2 cells, p24 ELISA); type: cell-based; details: 100 TCID50, p24 ELISA on fourth day post-infection, triplicate, mean ± standard deviation, read-out: EC50 (nM) for inhibiting HIV–1IIIB infection
From the text: (§1) To measure the inhibitory activity of the peptides on infection of HIV-1IIIB and HIV-1BaL, 1 × 10^4 MT-2 cells and TZM-b1 cells, respectively, were infected with 100 times the median tissue culture infective dose of a virus in the presence or absence of the peptides at graded concentrations. On the fourth day post-infection, the culture supernatants were collected for detection of p24 antigen using an enzyme-linked immunosorbent assay (ELISA). The percent inhibition by the peptides and EC50 values was calculated using Calcusyn software.[27]

[1] = Chemical denaturation by Gdn·HCl followed by CD at 222 nm; type: physicochemical; details: 7 M Gdn·HCl in PBS pH 7.4, 3 h at room temperature, CD 222 nm (Fig. 3C)
Description: For thermal denaturation studies, the stock peptide solutions were diluted with appropriate volumes of buffer and guanidine hydrochloride.

[2] = CD thermal denaturation (Tm); type: physicochemical; details: CD at 222 nm, 10 °C to 90 °C at 2 °C min–1, PBS pH 7.4, 10 μM peptide
Description: (§2) Lyophilized peptides were resuspended in ddH2O (pH 7.0) at a concentration of approximately 1 mg mL^–1. […] The peptides were incubated in a water bath set at 37 °C for 0.5 h before testing. CD spectra were acquired on an MOS-450 system (BioLogic, Claix, France) using the following parameters: band width, 4.0 nm; resolution, 0.1 nm; path length, 0.1 cm; response time, 4.0 s; and scanning speed, 50 nm min^–1. For CD thermal denaturation analysis, the temperature was controlled by a BioLogic TCU250 system, and CD spectra were monitored at 222 nm from 10 °C to 90 °C at a scan speed of 2 °C min^–1.
The samples were incubated at room temperature for 3 h before their full-range CD spectra or the ellipticities at 222 nm were recorded. For thermal denaturation studies, the stock peptide solutions were diluted with appropriate volumes of buffer and guanidine hydrochloride. Thermal denaturation was performed by monitoring the ellipticity change at 222 nm from 10 °C to 90 °C at a rate of 2 °C min^–1.
(§3) Table S1. Biophysical properties of the designed peptides a
(§4) a CD spectra of each designed peptide were monitored in PBS, pH 7.4. The final peptide concentration was 10 μM. […]
(§5) Table S2. Sequences of designed peptides a
(§6) a The Glu residues with a thioester side chain are underlined. Isopeptide bonds are formed between Lys-9 and Glu-14 (in […]

[3] = tested on: HIV-1 Env-mediated cell–cell fusion; details: read-out: EC50 (nM) for inhibiting cell–cell fusion; HL2/3 and TZM-bl cells coincubated 6–8 h at 37 °C, luciferase read-out; triplicate, mean ± standard deviation
Description: Cell–cell fusion assays were performed as described previously.[26] HL2/3 cells, which stably express HIV Gag, Env, Tat, Rev, and Nef proteins, as well as TZM-bl cells, which stably express large amounts of CD4 and CCR5, were obtained from the NIH AIDS Reference and Reagent Program (contributed by Drs Barbara Felber and George Pavlakis and Drs John C. Kappes and Xiaoyun Wu, respectively). TZM-bl cells (2.5 × 10^4 per well) and HL2/3 cells (7.5 × 10^4 per well) were coincubated in 96-well plates (Corning Costar) at 37 °C in 5% CO2 in the presence of different concentrations of inhibitors. After incubation for 6–8 h, the medium was aspirated, the cells were washed and lysed, and luciferase activity was measured using the Luciferase Assay System (Promega, Madison, WI) on a SpectraMax M5 plate reader (Molecular Devices, Sunnyvale, CA).

HIV-1BaL = HIV-1BaL infection assay (TZM-b1 cells, p24 ELISA); type: cell-based; details: 100 TCID50, p24 ELISA on fourth day post-infection, triplicate, mean ± standard deviation, read-out: EC50 (nM) for inhibiting HIV-1BaL infection
From the text: as §1

[4] = Sedimentation velocity analysis (SVA), oligomerization state; type: physicochemical; details: 150 μM in PBS (pH 7.4), 60,000 rpm, 20 °C, 280 nm; for Sedimentation coefficient: SEDFIT; for Observed molecular mass (kDa) by sedimentation analysis: SEDFIT c(M)
Description: All measurements were performed on a ProteomelabTMXL-A/XL-I analytical ultracentrifuge (Beckman Coulter, Fullerton, CA, USA) at 20 °C, as described previously. In brief, three-channel cells were used with an An-60 Tirotor. Lyophilized peptides were resuspended in ddH2O (pH 7.0) at approximately 1 mg mL^–1. The individual proteins were prepared in PBS and incubated at 37 °C for 30 min. All samples were prepared at a final concentration of 150 μM and were initially scanned at 3000 rpm for 10 min to identify the appropriate wavelength for data collection. Data were collected at 60 000 rpm at a wavelength of 280 nm. Sedimentation coefficient distribution, c(s), and molecular mass distribution, c(M), were calculated using the SEDFIT program.
Table S1. […]
Sedimentation equilibrium studies were performed at a concentration of 150 μM in PBS (pH 7.4) and a rotor speed of
60,000 rpm at 20 °C. b The theoretical molecular mass for the HR peptides in the monomeric conformation.
as §5, §6

[5] = CD spectroscopy, α-helicity; type: physicochemical; details: CD in PBS, pH 7.4, final peptide concentration 10 μM, pre-incubated 37 °C 0.5 h
Description: as §2, §3, §4

[6] = rat (Sprague-Dawley, three pooled) liver homogenate, 4 mL Tris–HCl 50 mM pH 7.4 per g, 9,000g supernatant, peptide 10 μg/mL, LC-MS/MS (SIM) (Fig. 4B)
Description: (§7) Qualification assay. Chromatographic analyses were performed using an ODS-C8 column (5 μm, 100 mm × 2.0mm ID) kept at ambient temperature. The mobile phase was composed of acetonitrile-water-formic acid in the ratio of 60:40:0.1 (v/v/v) at a flow rate of 0.3 mL/min. The sample injection volume was 10 μL. Acetonitrile was HPLC grade, and other chemical reagents and solvents were analytical grade. A Thermo TSQ Quantum Discovery MAX triple–quadruple tandem mass spectrometer equipped with ESI source (San Jose, CA) and Surveyor LC pump were used for LC-MS/MS analysis. Data acquisition and data processing were performed by using Xcalibur software and LCQuan 2.0 data analysis program (Thermo Finnigan), respectively. Optimized MS parameters were as below: 4800 V spray voltage, 10.0 psi sheath gas pressure, 1.0 psi auxiliary valve flow, and 300 °C of capillary temperature. When running collision-induced dissociation (CID), the pressure was set to 1.5 mTorr. The selected ion monitoring (SIM) mode was preformed for T20
(§8) Preparation of Samples. By use of a simple protein precipitation method, a test compound was extracted from liver
(§9) homogenate and 20 ng/mL proteinase K in PBS, respectively. Samples for standard curves were prepared by spiking 50
(§10) μL of rat liver homogenate or 20 ng/mL proteinase K with 100 μL of various concentrations of each test compound
(§11) ranging from 0.1－5 μg/mL in ethanol. […]

proteinase K = proteinase K (Parengyodontium album, UniProt P06873); details: 20 ng/mL proteinase K in PBS, peptide 10 μg/mL, LC-MS/MS (SIM) (Fig. 4A)
proteinase K, sequence (P06873 106-384): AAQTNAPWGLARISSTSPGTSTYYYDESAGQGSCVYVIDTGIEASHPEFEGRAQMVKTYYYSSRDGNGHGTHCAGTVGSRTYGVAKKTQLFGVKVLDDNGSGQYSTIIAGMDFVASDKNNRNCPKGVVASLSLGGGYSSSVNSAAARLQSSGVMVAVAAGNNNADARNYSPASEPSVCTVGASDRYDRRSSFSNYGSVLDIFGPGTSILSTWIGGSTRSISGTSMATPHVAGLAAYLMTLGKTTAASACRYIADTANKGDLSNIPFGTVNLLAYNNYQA
Description: as §7, §8, §9, §10, §11

Row | Compound | EC50 (HIV-1IIIB) [nM] | [θ]G/[θ]0 ([θ]222 with Gdn·HCl vs. without) / resistance to Gdn·HCl unfolding [1] | Tm (°C) [2] | EC50 [3] [nM] | EC50 (HIV-1BaL) [nM] | Sedimentation coefficient [4] [s] | Observed molecular mass (kDa) by sedimentation analysis [4] [kDa] | Helicity (%) [5] [%] | proteolytic stability in liver homogenate, compared with T20 [6] | proteolytic stability in proteinase K, compared with T20 (proteinase K)
1 | I: Ac-WRIQQIEQKIHHIEQRIQQIEQRIQQIEQ-NH2 / II: Ac-WRIQQIEQKIHHIEQRIQQIEQRIQQIEQ-NH2 / III: Ac-WRIQQIEQKIHHIEQRIQQIEQRIQQIEQ-NH2 (amide I:9-III:14, I:14-II:9, II:14-III:9) [(4HR)3] | > 10000 | almost unbreakable | higher than 90 °C | > 5000 | > 10000 | 1.5 | 13.3 | – | – | –
2 | CC[C@H](C)[C@H](NC(=O)[C@H](CCC(N)=O)NC(=O)[C@H](CCC(N)=O)NC(=O)[C@@H](NC(=O)[C@H](CCCNC(=N)N)NC(=O)[C@H](CCC(N)=O)NC(=O)[C@H](CCC(=O)O)NC(=O)[C@@H](NC(=O)[C@H](Cc1c[nH]cn1)NC(=O)[C@H](Cc1c[nH]cn1)NC(=O)[C@@H](NC(=O)[C@H](CCCCN)NC(=O)[C@H](CCC(N)=O)NC(=O)[C@H](CCC(=O)O)NC(=O)[C@@H](NC(=O)[C@H](CCC(N)=O)NC(=O)[C@H](CCC(N)=O)NC(=O)[C@@H](NC(=O)[C@H](CCCNC(=N)N)NC(=O)[C@H](Cc1c[nH]c2ccccc12)NC(C)=O)[C@@H](C)CC)[C@@H](C)CC)[C@@H](C)CC)[C@@H](C)CC)[C@@H](C)CC)C(=O)N[C@@H](CCC(=O)O)C(=O)N[C@@H](CCC(N)=O)C(N)=O [Compound 3HR] (Ac-WRIQQIEQKIHHIEQRIQQIEQ-NH2) | – | completely lost its tertiary structure | 44 °C | – | – | 1.2 | 9.9 | 46.4 | – | –
3 | I: Ac-WRIQQIEQKIHHIEQRIQQIEQ-NH2 / II: Ac-WRIQQIEQKIHHIEQRIQQIEQ-NH2 / III: Ac-WRIQQIEQKIHHIEQRIQQIEQ-NH2 (amide I:9-III:14, I:14-II:9, II:14-III:9) [(3HR)3] | > 10000 | almost unbreakable | higher than 90 °C | > 5000 | > 10000 | 1.2 | 9.2 | 83.4 | – | –
4 | CC[C@H](C)[C@H](NC(=O)[C@H](CCC(N)=O)NC(=O)[C@H](CCC(N)=O)NC(=O)[C@@H](NC(=O)[C@H](CCCNC(=N)N)NC(=O)[C@H](CCC(N)=O)NC(=O)[C@H](CCC(=O)O)NC(=O)[C@@H](NC(=O)[C@H](CCC(N)=O)NC(=O)[C@H](CCC(N)=O)NC(=O)[C@@H](NC(=O)[C@H](CCCNC(=N)N)NC(=O)[C@H](CCC(N)=O)NC(=O)[C@H](CCC(=O)O)NC(=O)[C@@H](NC(=O)[C@H](Cc1c[nH]cn1)NC(=O)[C@H](Cc1c[nH]cn1)NC(=O)[C@@H](NC(=O)[C@H](CCCCN)NC(=O)[C@H](CCC(N)=O)NC(=O)[C@H](CCC(=O)O)NC(=O)[C@@H](NC(=O)[C@H](CCC(N)=O)NC(=O)[C@H](CCC(N)=O)NC(=O)[C@@H](NC(=O)[C@H](CCCNC(=N)N)NC(=O)[C@H](Cc1c[nH]c2ccccc12)NC(C)=O)[C@@H](C)CC)[C@@H](C)CC)[C@@H](C)CC)[C@@H](C)CC)[C@@H](C)CC)[C@@H](C)CC)[C@@H](C)CC)C(=O)N[C@@H](CCC(=O)O)C(=O)N[C@@H](CCC(N)=O)C(N)=O [Compound 4HR] (Ac-WRIQQIEQKIHHIEQRIQQIEQRIQQIEQ-NH2) | – | ~0.2 | higher than 90 °C | – | – | 1.3 | 10.5 | 99.5 | – | –
5 | W RIQQIEQ KI HHIE Q RIQQIEQ RIEAQQH LLQLTVW GIKQLQA RIL (sidechain bridge or staple) [(3HRN23)3] | 21.3 ± 1.8 | – | > 90 °C | 10.2 ± 0.9 | 58.2 ± 1.5 | 1.6 | 17.3 | 89.6 | much more resistant than T20 | much more resistant than T20
6 | CC[C@H](C)[C@H](NC(C)=O)C(=O)N[C@@H](CCC(=O)O)C(=O)N[C@@H](C)C(=O)N[C@@H](CCC(N)=O)C(=O)N[C@@H](CCC(N)=O)C(=O)N[C@@H](Cc1c[nH]cn1)C(=O)N[C@@H](CC(C)C)C(=O)N[C@@H](CC(C)C)C(=O)N[C@@H](CCC(N)=O)C(=O)N[C@@H](CC(C)C)C(=O)N[C@H](C(=O)N[C@H](C(=O)N[C@@H](Cc1c[nH]c2ccccc12)C(=O)NCC(=O)N[C@H](C(=O)N[C@@H](CCCCN)C(=O)N[C@@H](CCC(N)=O)C(=O)N[C@@H](CC(C)C)C(=O)N[C@@H](CCC(N)=O)C(=O)N[C@@H](C)C(=O)N[C@@H](CCCNC(=N)N)C(=O)N[C@H](C(=O)N[C@@H](CC(C)C)C(N)=O)[C@@H](C)CC)[C@@H](C)CC)C(C)C)[C@@H](C)O [Compound N23, reference compound] (Ac-IEAQQHLLQLTVWGIKQLQARIL-NH2) | > 10000 | – | not detected | > 5000 | > 10000 | – | – | 16.8 | – | –
